Laboratory results: patent US11377441B2, “Covalent inhibitors of KRAS” (Araxes Pharma LLC, priority 2017, dated 2022)

Target: T1, KRAS G12C 1-169, his-tagged protein, GDP-loaded (Homo sapiens, UniProt P01116, G12C)
T1 construct: KRAS G12C 1-169, his-tagged protein, GDP-loaded
Assay: Biochemical assay: covalent modification of KRAS G12C measured by mass spectrometry (RapidFire/TOF or Q-Exactive)
Format: binding
Settings: covalent binding to (modification of) KRAS G12C after a ten minute incubation period
Outline: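 Intact-mass readout (TOF or Q-Exactive, charge-envelope deconvolution) gives percent covalent adduct from modified and unmodified species. Compound at 10, 30 or 100 μM was incubated at room temperature for 10 min to 24 h with 2 μM or 0.5 μM GDP-bound KRAS G12C 1-169 in Hepes/NaCl/MgCl2 buffer, then acid-quenched.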

Row | Structure (SMILES) | Binding %
1 | C=CC(=O)N1C[C@H](C)N(c2nc(N3CC(N(C)C)C3)nc3c(F)c(-c4c(C)ccc5[nH]nc(C(F)(F)F)c45)c(Cl)cc23)C[C@H]1C [Compound 115, 1-((2R,5S)-4-(6-chloro-2-(3-(dimethylamino)azetidin-1-yl)-8-fluoro-7-(5-methyl-3-(trifluoromethyl)-1H-indazol-4-yl)quinazolin-4-yl)-2,5-dimethylpiperazin-1-yl)prop-2-en-1-one] | + (+ indicates binding activity greater than 0% and up to 50%)
2 | C=CC(=O)N1C[C@H](C)N(c2nc(OCCN3CCC(F)(F)CC3)nc3c(F)c(-c4c(C)ccc5[nH]nc(N)c45)c(Cl)cc23)C[C@H]1C [Compound 118, 1-((2R,5S)-4-(7-(3-amino-5-methyl-1H-indazol-4-yl)-6-chloro-2-(2-(4,4-difluoropiperidin-1-yl)ethoxy)-8-fluoroquinazolin-4-yl)-2,5-dimethylpiperazin-1-yl)prop-2-en-1-one] | +++ (+++ indicates binding activity greater than 80%)
3 | C=CC(=O)N1C[C@H](C)N(c2nc(N3CC(N(C)C)C3)nc3c(F)c(-c4c(C)ccc5[nH]nc(NC(C)=O)c45)c(Cl)cc23)C[C@H]1C [Compound 119, N-(4-(4-((2S,5R)-4-acryloyl-2,5-dimethylpiperazin-1-yl)-6-chloro-2-(3-(dimethylamino)azetidin-1-yl)-8-fluoroquinazolin-7-yl)-5-methyl-1H-indazol-3-yl)acetamide] | + (+ indicates binding activity greater than 0% and up to 50%)
4 | C=CC(=O)N1C[C@H](C)N(c2nc(N3CC(N(C)C)C3)nc3c(F)c(-c4c(C)ccc5cnn(C)c45)c(Cl)cc23)C[C@H]1C [Compound 120, 1-((2R,5S)-4-(6-chloro-7-(1,6-dimethyl-1H-indazol-7-yl)-2-(3-(dimethylamino)azetidin-1-yl)-8-fluoroquinazolin-4-yl)-2,5-dimethylpiperazin-1-yl)prop-2-en-1-one] | ++ (++ indicates binding activity from 50 to 80%)
5 | C=CC(=O)N1C[C@H](C)N(c2nc(OCCN3CC(F)(F)C3)nc3c(F)c(-c4c(C)ccc5cnn(CC)c45)c(Cl)cc23)C[C@H]1C [Compound 123, 1-((2R,5S)-4-(6-chloro-2-(2-(3,3-difluoroazetidin-1-yl)ethoxy)-7-(1-ethyl-6-methyl-1H-indazol-7-yl)-8-fluoroquinazolin-4-yl)-2,5-dimethylpiperazin-1-yl)prop-2-en-1-one] | +++ (+++ indicates binding activity greater than 80%)
6 | C=CC(=O)N1C[C@H](C)N(c2nc(N3CC(N(C)C)C3)nc3c(F)c(-c4c(C)ccc5sncc45)c(Cl)cc23)C[C@H]1C [Compound 124, 1-((2R,5S)-4-(6-chloro-2-(3-(dimethylamino)azetidin-1-yl)-8-fluoro-7-(5-methylbenzo[d]isothia-zol-4-yl)quinazolin-4-yl)-2,5-dimethylpiperazin-1-yl)prop-2-en-1-one] | ++ (++ indicates binding activity from 50 to 80%)
7 | C=CC(=O)N1C[C@H](C)N(c2nc(N3CC(N(C)C)C3)nc3c(F)c(-c4c(C)ccc5ocnc45)c(Cl)cc23)C[C@H]1C [Compound 125, 1-((2R,5S)-4-(6-chloro-2-(3-(dimethylamino)azetidin-1-yl)-8-fluoro-7-(5-methylbenzo[d]oxazol-4-yl)quinazolin-4-yl)-2,5-dimethylpiperazin-1-yl)prop-2-en-1-one] | ++ (++ indicates binding activity from 50 to 80%)
8 | C=CC(=O)N1C[C@H](C)N(c2nc(N3CC(N)C3)nc3c(F)c(-c4c(C)ccc5[nH]nc(C6CC6)c45)c(Cl)cc23)C[C@H]1C [Compound 126, 1-((2R,5S)-4-(2-(3-aminoazetidin-1-yl)-6-chloro-7-(3-cyclopropyl-5-methyl-1H-indazol-4-yl)-8-fluoroquinazolin-4-yl)-2,5-dimethylpiperazin-1-yl)prop-2-en-1-one] | +++ (+++ indicates binding activity greater than 80%)
9 | C=CC(=O)N1C[C@H](C)N(c2nc(N3CC(N(C)C)C3)nc3c(F)c(-c4c(C)ccc5cnn(C(C)C)c45)c(Cl)cc23)C[C@H]1C [Compound 127, 1-((2R,5S)-4-(6-chloro-2-(3-(dimethylamino)azetidin-1-yl)-8-fluoro-7-(1-isopropyl-6-methyl-1H-indazol-7-yl)quinazolin-4-yl)-2,5-dimethylpiperazin-1-yl)prop-2-en-1-one] | ++ (++ indicates binding activity from 50 to 80%)
10 | C=CC(=O)N1C[C@H](C)N(c2nc(N3CC(N(C)C)C3)nc3c(F)c(-c4c(C)ccc5cnn(C6CC6)c45)c(Cl)cc23)C[C@H]1C [Compound 128, 1-((2R,5S)-4-(6-chloro-7-(1-cyclopropyl-6-methyl-1H-indazol-7-yl)-2-(3-(dimethylamino)azetidin-1-yl)-8-fluoroquinazolin-4-yl)-2,5-dimethylpiperazin-1-yl)prop-2-en-1-one] | +++ (+++ indicates binding activity greater than 80%)
11 | C=CC(=O)N1C[C@H](C)N(c2nc(N3CC(NC)C3)nc3c(F)c(-c4c(C)ccc5[nH]nc(C6CC6)c45)c(Cl)cc23)C[C@H]1C [Compound 129, 1-((2R,5S)-4-(6-chloro-7-(3-cyclopropyl-5-methyl-1H-indazol-4-yl)-8-fluoro-2-(3-(methylamino)azetidin-1-yl)quinazolin-4-yl)-2,5-dimethylpiperazin-1-yl)prop-2-en-1-one] | +++ (+++ indicates binding activity greater than 80%)
12 | C=CC(=O)N1C[C@H](C)N(c2nc(N3CC(N(C)C)C3)nc3c(F)c(-c4cccc5occc45)c(Cl)cc23)C[C@H]1C [Compound 130, 1-((2R,5S)-4-(7-(benzofuran-4-yl)-6-chloro-2-(3-(dimethylamino)azetidin-1-yl)-8-fluoroquinazolin-4-yl)-2,5-dimethylpiperazin-1-yl)prop-2-en-1-one] | ++ (++ indicates binding activity from 50 to 80%)
13 | C=CC(=O)N1C[C@H](C)N(c2nc(N3CC(N(C)C)C3)nc3c(F)c(-c4c(C)ccc5ncn(C)c45)c(Cl)cc23)C[C@H]1C [Compound 132, 1-((2R,5S)-4-(6-chloro-7-(1,6-dimethyl-1H-benzo[d]imidazol-7-yl)-2-(3-(dimethylamino)azetidin-1-yl)-8-fluoroquinazolin-4-yl)-2,5-dimethylpiperazin-1-yl)prop-2-en-1-one] | + (+ indicates binding activity greater than 0% and up to 50%)
14 | C=CC(=O)N1C[C@H](C)N(c2nc(N3CC(N(C)C)C3)nc3c(F)c(-c4cccc5ccn(C)c45)c(Cl)cc23)C[C@H]1C [Compound 138, 1-((2R,5S)-4-(6-chloro-2-(3-(dimethylamino)azetidin-1-yl)-8-fluoro-7-(1-methyl-1H-indol-7-yl)quinazolin-4-yl)-2,5-dimethylpiperazin-1-yl)prop-2-en-1-one] | +++ (+++ indicates binding activity greater than 80%)
15 | C=CC(=O)N1C[C@H](C)N(c2nc(N3CC(NC)C3)nc3c(F)c(-c4c(C)ccc5[nH]nc(C)c45)c(Cl)cc23)C[C@H]1C [Compound 140, 1-((2R,5S)-4-(6-chloro-7-(3,5-dimethyl-1H-indazol-4-yl)-8-fluoro-2-(3-(methylamino)azetidin-1-yl)quinazolin-4-yl)-2,5-dimethylpiperazin-1-yl)prop-2-en-1-one] | +++ (+++ indicates binding activity greater than 80%)
16 | C=CC(=O)N1C[C@H](C)N(c2nc(N3CC(N(C)C)C3)nc3c(F)c(-c4c(F)ccc5cnn(C)c45)c(Cl)cc23)C[C@H]1C [Compound 145, 1-((2R,5S)-4-(6-chloro-2-(3-(dimethylamino)azetidin-1-yl)-8-fluoro-7-(6-fluoro-1-methyl-1H-indazol-7-yl)quinazolin-4-yl)-2,5-dimethylpiperazin-1-yl)prop-2-en-1-one] | +++ (+++ indicates binding activity greater than 80%)
17 | C=CC(=O)N1C[C@H](C)N(c2nc(N3CC(NC)C3)nc3c(F)c(-c4c(C)ccc5cnn(C6CC6)c45)c(Cl)cc23)C[C@H]1C [Compound 148, 1-((2R,5S)-4-(6-chloro-7-(1-cyclopropyl-6-methyl-1H-indazol-7-yl)-8-fluoro-2-(3-(methylamino)azetidin-1-yl)quinazolin-4-yl)-2,5-dimethylpiperazin-1-yl)prop-2-en-1-one] | +++ (+++ indicates binding activity greater than 80%)
18 | C=CC(=O)N1C[C@H](C)N(c2nc(N3CC(N(C)C)C3)nc3c(F)c(-c4cccc5snc(C)c45)c(Cl)cc23)C[C@H]1C [Compound 157, 1-((2R,5S)-4-(6-chloro-2-(3-(dimethylamino)azetidin-1-yl)-8-fluoro-7-(3-methylbenzo[d]isothia-zol-4-yl)quinazolin-4-yl)-2,5-dimethylpiperazin-1-yl)prop-2-en-1-one] | +++ (+++ indicates binding activity greater than 80%)
19 | C=CC(=O)N1C[C@H](C)N(c2nc(N3CC(N(C)C)C3)nc3c(F)c(-c4cccc5c(Cl)n[nH]c45)c(Cl)cc23)C[C@H]1C [Compound 158, 1-((2R,5S)-4-(6-chloro-7-(3-chloro-1H-indazol-7-yl)-2-(3-(dimethylamino)azetidin-1-yl)-8-fluoroquinazolin-4-yl)-2,5-dimethylpiperazin-1-yl)prop-2-en-1-one] | ++ (++ indicates binding activity from 50 to 80%)
20 | C=CC(=O)N1C[C@H](C)N(c2nc(N3CC(N(C)C)C3)nc3c(F)c(-c4c(C(C)C)ccc5[nH]ncc45)c(Cl)cc23)C[C@H]1C [Compound 159, 1-((2R,5S)-4-(6-chloro-2-(3-(dimethylamino)azetidin-1-yl)-8-fluoro-7-(5-isopropyl-1H-indazol-4-yl)quinazolin-4-yl)-2,5-dimethylpiperazin-1-yl)prop-2-en-1-one] | + (+ indicates binding activity greater than 0% and up to 50%)
